IC50 data for 28 compounds are collected here from patent publication US8471005B2 (Cephalon, Inc., priority 2008, dated 2013).

Assay [1] concerns the target T1, ALK (Homo sapiens, UniProt Q9UM73).
T1 construct: host or cells: baculovirus expression system
Briefly: ALK Kinase Assay (ELISA/TRF, PLC-γ substrate). It counts as biochemical. To be noted: ALK Kinase Inhibition; read-out: ALK Potency. A digest of the protocol:
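PLC-γ coat 10 μg/mL in TBS; ALK 30 ng/ml added to start; 37° C, 15 min; Eu-N1 PT66 antibody detection (TRF). IC50: % inhibition vs log10 [cpd], variable-slope sigmoidal fit.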
(An ELISA detects its analyte on a solid surface through an enzyme-linked reagent.)

Assay [2] deals with T2, JAK2 (Homo sapiens, UniProt O60674).
T2 construct: host or cells: baculovirus expression system
T2 sequence (O60674 whole entry): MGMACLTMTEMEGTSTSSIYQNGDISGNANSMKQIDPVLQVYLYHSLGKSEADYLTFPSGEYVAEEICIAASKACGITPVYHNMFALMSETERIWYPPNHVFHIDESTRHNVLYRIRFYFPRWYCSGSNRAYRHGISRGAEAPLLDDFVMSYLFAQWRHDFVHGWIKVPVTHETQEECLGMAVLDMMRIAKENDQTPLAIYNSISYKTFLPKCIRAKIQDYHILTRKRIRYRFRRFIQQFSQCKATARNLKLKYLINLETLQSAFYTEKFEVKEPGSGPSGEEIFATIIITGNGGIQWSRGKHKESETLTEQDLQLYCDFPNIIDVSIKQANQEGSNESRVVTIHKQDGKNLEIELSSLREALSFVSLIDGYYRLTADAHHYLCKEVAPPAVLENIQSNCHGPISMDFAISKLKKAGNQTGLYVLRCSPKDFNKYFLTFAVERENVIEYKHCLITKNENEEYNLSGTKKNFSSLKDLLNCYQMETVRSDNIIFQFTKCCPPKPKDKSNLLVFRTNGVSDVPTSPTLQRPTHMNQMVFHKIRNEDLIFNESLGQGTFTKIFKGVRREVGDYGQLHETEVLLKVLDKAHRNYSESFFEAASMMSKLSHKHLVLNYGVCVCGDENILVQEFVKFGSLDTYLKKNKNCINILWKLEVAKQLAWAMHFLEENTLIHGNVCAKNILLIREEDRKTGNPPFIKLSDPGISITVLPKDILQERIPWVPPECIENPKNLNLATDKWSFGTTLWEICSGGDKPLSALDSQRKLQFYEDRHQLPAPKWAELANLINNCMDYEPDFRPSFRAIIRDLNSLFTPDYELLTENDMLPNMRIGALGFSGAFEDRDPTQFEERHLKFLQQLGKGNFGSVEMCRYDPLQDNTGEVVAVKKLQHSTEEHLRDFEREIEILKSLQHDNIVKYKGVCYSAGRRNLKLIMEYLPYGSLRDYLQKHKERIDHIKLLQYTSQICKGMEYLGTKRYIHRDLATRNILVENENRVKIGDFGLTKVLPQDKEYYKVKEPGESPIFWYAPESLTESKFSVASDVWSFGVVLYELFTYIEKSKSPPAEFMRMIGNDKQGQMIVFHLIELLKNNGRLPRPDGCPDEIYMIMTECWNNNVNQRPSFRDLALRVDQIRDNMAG
Nature of the assay: Recombinant Human JAK2 Kinase Assay (TRF). It counts as biochemical. To be noted: JAK2 Kinase Inhibition; read-out: JAK2 Potency. A digest of the protocol:
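Baculovirus-expressed JAK2 (15 ng/ml) phosphorylated a biotinylated 15-mer peptide captured on Neutravidin, in 20 mM HEPES pH 7.2, 0.2 μM ATP, 1 mM MnCl2, 0.1% BSA, 2.5% DMSO final, 20 min at room temperature. Phosphoproduct detected by time-resolved fluorescence with Eu-N1-labelled PY100 antibody.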

pIC50: −log10 of the molar value.

T1 sequence (Q9UM73 19-1620): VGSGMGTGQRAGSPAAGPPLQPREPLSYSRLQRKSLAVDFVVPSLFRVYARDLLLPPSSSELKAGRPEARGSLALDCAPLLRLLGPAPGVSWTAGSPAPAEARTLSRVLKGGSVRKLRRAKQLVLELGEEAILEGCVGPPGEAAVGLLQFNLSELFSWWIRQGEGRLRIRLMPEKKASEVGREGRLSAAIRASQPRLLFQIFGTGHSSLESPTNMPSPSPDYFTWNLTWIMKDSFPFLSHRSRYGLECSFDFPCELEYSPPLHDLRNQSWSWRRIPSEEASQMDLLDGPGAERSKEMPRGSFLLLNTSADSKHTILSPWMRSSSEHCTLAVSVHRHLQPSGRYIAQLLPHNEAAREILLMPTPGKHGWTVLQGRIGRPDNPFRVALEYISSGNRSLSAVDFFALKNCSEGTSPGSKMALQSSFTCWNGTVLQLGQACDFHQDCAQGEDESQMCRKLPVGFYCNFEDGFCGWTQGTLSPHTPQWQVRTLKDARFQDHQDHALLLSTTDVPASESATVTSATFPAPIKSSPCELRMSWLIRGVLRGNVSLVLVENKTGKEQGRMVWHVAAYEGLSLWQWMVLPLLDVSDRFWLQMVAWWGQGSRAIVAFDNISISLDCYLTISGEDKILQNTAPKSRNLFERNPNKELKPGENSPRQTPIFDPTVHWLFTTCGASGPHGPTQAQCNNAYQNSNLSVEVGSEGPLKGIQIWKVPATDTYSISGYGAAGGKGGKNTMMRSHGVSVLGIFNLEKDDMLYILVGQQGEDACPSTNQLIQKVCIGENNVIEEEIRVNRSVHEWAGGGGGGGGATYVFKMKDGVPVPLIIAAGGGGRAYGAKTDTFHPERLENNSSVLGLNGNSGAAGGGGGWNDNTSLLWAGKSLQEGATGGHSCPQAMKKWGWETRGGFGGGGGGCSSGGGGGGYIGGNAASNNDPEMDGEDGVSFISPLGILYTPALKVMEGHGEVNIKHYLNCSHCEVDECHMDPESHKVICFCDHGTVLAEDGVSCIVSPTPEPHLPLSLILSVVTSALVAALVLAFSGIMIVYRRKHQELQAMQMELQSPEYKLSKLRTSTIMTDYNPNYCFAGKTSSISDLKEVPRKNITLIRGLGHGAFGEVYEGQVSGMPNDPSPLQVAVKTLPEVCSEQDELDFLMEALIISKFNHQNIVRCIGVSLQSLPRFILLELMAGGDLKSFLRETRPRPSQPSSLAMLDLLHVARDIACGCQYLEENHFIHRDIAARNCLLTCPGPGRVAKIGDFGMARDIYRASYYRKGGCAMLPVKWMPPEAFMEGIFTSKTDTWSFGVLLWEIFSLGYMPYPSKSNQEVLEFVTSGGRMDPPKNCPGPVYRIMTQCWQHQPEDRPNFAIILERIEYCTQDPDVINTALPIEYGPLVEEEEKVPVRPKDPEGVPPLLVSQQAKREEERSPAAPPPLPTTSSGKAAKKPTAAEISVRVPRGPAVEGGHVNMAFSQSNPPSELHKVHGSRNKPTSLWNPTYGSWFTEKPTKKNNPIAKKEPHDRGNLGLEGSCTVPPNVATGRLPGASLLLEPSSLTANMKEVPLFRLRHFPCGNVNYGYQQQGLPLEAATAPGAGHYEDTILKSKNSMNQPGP

On to `CN1C(=O)Cc2cc(Nc3ncc4ccc(-c5cccc(NS(C)(=O)=O)c5)n4n3)ccc21` [Example 361, N-{3-[2-(1-Methyl-2-oxo-2,3-dihydro-1H-indol-5-ylamino)-pyrrolo[2,1-f][1,2,4]triazin-7-yl]-phenyl}-methanesulfonamide], for which the pIC50 in assay [1] is 6.00 to 7.00; in assay [2], above 7.00.

On to `c1ccc(NCc2ccc3cnc(Nc4ccc(N5CCOCC5)cc4)nn23)cc1` [Example 362, (4-Morpholin-4-yl-phenyl)-(7-phenylaminomethyl-pyrrolo[2,1-f][1,2,4]triazin-2-yl)-amine], for which the pIC50 in assay [1] is 5.00 to 6.00; in assay [2] it was above 7.00.

For `CN1CCN(c2ccc(Nc3ncc4ccc(CNc5ccccc5)n4n3)cc2)CC1` [Example 363, [4-(4-Methyl-piperazin-1-yl)-phenyl]-(7-phenylaminomethyl-pyrrolo[2,1-f][1,2,4]triazin-2-yl)-amine], the pIC50 in assay [1] is 5.00 to 6.00; in assay [2] it was above 7.00.

As to `COc1ccccc1NCc1ccc2cnc(Nc3ccc(N4CCOCC4)cc3)nn12` [Example 364, {7-[(2-Methoxy-phenylamino)-methyl]-pyrrolo[2,1-f][1,2,4]triazin-2-yl}-(4-morpholin-4-yl-phenyl)-amine], the pIC50 was below 5.00 in assay [1] and above 7.00 in assay [2].

Regarding `COc1ccccc1NCc1ccc2cnc(Nc3ccc(N4CCN(C)CC4)cc3)nn12` [Example 365, {7-[(2-Methoxy-phenylamino)-methyl]-pyrrolo[2,1-f][1,2,4]triazin-2-yl}-[4-(4-methyl-piperazin-1-yl)-phenyl]-amine], the pIC50 in assay [1] is 5.00 to 6.00; in assay [2] it was above 7.00.

As for `CNS(=O)(=O)c1cccc(-c2ccc3cnc(Nc4ccc(N5CCN(C)CC5)cc4)nn23)c1` [Example 366, N-Methyl-3-{2-[4-(4-methyl-piperazin-1-yl)-phenylamino]-pyrrolo[2,1-f][1,2,4]triazin-7-yl}-benzenesulfonamide], the pIC50 is 6.00 to 7.00 in assay [1] and above 7.00 in assay [2].

As to `CN1CCN(c2ccc(Nc3ncc4ccc(-c5cccc(S(=O)(=O)N6CCCC6)c5)n4n3)cc2)CC1` [Example 367, [4-(4-Methyl-piperazin-1-yl)-phenyl]-{7-[3-(pyrrolidine-1-sulfonyl)-phenyl]-pyrrolo[2,1-f][1,2,4]triazin-2-yl}-amine], the results for the pIC50 in assay [1] and in assay [2] were 6.00 to 7.00 and above 7.00, respectively.

In the case of `O=S(=O)(NCCO)c1cccc(-c2ccc3cnc(Nc4ccc(N5CCOCC5)cc4)nn23)c1` [Example 368, N-(2-Hydroxy-ethyl)-3-[2-(4-morpholin-4-yl-phenylamino)-pyrrolo[2,1-f][1,2,4]triazin-7-yl]-benzenesulfonamide], the pIC50 in assay [1] was 6.00 to 7.00; in assay [2], above 7.00.

As to `CN1CCN(c2ccc(Nc3ncc4ccc(-c5cccc(S(=O)(=O)NCCO)c5)n4n3)cc2)CC1` [Example 369, N-(2-Hydroxy-ethyl)-3-{2-[4-(4-methyl-piperazin-1-yl)-phenylamino]-pyrrolo[2,1-f][1,2,4]triazin-7-yl}-benzenesulfonamide], the results for the pIC50 in assay [1] and in assay [2] were 6.00 to 7.00 and above 7.00, respectively.

`COc1ccccc1-c1ccc2cnc(Nc3ccc(N4CCOCC4)cc3F)nn12` [Example 370, (2-Fluoro-4-morpholin-4-yl-phenyl)-[7-(2-methoxy-phenyl)-pyrrolo[2,1-f][1,2,4]triazin-2-yl]-amine]: the pIC50 in assay [1] was 6.00 to 7.00; in assay [2], above 7.00.

Regarding `CS(=O)(=O)Nc1cccc(-c2ccc3cnc(Nc4ccc(N5CCOCC5)cc4F)nn23)c1` [Example 371, N-{3-[2-(2-Fluoro-4-morpholin-4-yl-phenylamino)-pyrrolo[2,1-f][1,2,4]triazin-7-yl]-phenyl}-methanesulfonamide], the pIC50 is 5.00 to 6.00 in assay [1] and above 7.00 in assay [2].

`Fc1cc(N2CCOCC2)ccc1Nc1ncc2ccc(-c3cccnc3)n2n1` [Example 372, (2-Fluoro-4-morpholin-4-yl-phenyl)-(7-pyridin-3-yl-pyrrolo[2,1-f][1,2,4]triazin-2-yl)-amine]: the pIC50 in assay [1] was 6.00 to 7.00; in assay [2] it was above 7.00.

Regarding `CN1C(=O)Cc2cc(Nc3ncc4ccc(-c5ccc(S(C)(=O)=O)cc5)n4n3)ccc21` [Example 373, 5-[7-(4-Methanesulfonyl-phenyl)-pyrrolo[2,1-f][1,2,4]triazin-2-ylamino]-1-methyl-1,3-dihydro-indol-2-one], the pIC50 in assay [1] was 5.00 to 6.00; in assay [2], above 7.00.

As for `CN1C(=O)Cc2cc(Nc3ncc4ccc(-c5cccnc5)n4n3)ccc21` [Example 374, 1-Methyl-5-(7-pyridin-3-yl-pyrrolo[2,1-f][1,2,4]triazin-2-ylamino)-1,3-dihydro-indol-2-one], the results for the pIC50 in assay [1] and in assay [2] were 5.00 to 6.00 and above 7.00, respectively.

For `CN1C(=O)Cc2cc(Nc3ncc4ccc(-c5ccccc5N(C)S(C)(=O)=O)n4n3)ccc21` [Example 375, N-Methyl-N-{2-[2-(1-methyl-2-oxo-2,3-dihydro-1H-indol-5-ylamino)-pyrrolo[2,1-f][1,2,4]triazin-7-yl]-phenyl}-methanesulfonamide], the results for the pIC50 in assay [1] and in assay [2] were 6.00 to 7.00 and above 7.00, respectively.

As for `COc1ccccc1-c1ccc2cnc(Nc3ccc4c(c3)C(=O)CC3(CCN(C)CC3)O4)nn12` [Example 376], the pIC50 in assay [1] is 6.00 to 7.00; in assay [2], above 7.00.

In the case of `CN1CCC2(CCc3cc(Nc4ncc5ccc(-c6cccc(NS(C)(=O)=O)c6)n5n4)ccc3O2)CC1` [Example 378], the pIC50 in assay [1] and in assay [2] was above 7.00 throughout.

Turning to `CN1CCN(c2ccc(Nc3ncc4ccc(-c5cccc(NS(C)(=O)=O)c5)n4n3)cc2)CC1` [Example 379, N-(3-{2-[4-(4-Methyl-piperazin-1-yl)-phenylamino]-pyrrolo[2,1-f][1,2,4]triazin-7-yl}-phenyl)-methanesulfonamide], the results for the pIC50 in assay [1] and in assay [2] were 6.00 to 7.00 and above 7.00, respectively.

Regarding `CS(=O)(=O)Nc1cccc(-c2ccc3cnc(Nc4ccc(N5CCN(CCO)CC5)cc4)nn23)c1` [Example 380, N-[3-(2-{4-[4-(2-Hydroxy-ethyl)-piperazin-1-yl]-phenylamino}-pyrrolo[2,1-f][1,2,4]triazin-7-yl)-phenyl]-methanesulfonamide], the pIC50 in assay [1] and in assay [2] was above 7.00 each time.

On to `CC1(C)CCC(=O)Nc2cc(Nc3ncc4ccc(-c5cccc(NS(C)(=O)=O)c5)n4n3)ccc21` [Example 381, N-{3-[2-(5,5-Dimethyl-2-oxo-2,3,4,5-tetrahydro-1H-1-benzazepin-8-ylamino)-pyrrolo[2,1-f][1,2,4]triazin-7-yl]-phenyl}-methanesulfonamide], for which the pIC50 was 6.00 to 7.00 in assay [1] and above 7.00 in assay [2].

For `CS(=O)(=O)Nc1cccc(-c2ccc3cnc(Nc4ccc5c(c4)CCC(N4CCOCC4)CC5)nn23)c1` (centres unmarked) [Example 382, N-{3-[2-(7-Morpholin-4-yl-6,7,8,9-tetrahydro-5H-benzocyclohepten-2-ylamino)-pyrrolo[2,1-f][1,2,4]triazin-7-yl]-phenyl}-methanesulfonamide], the pIC50 in assay [1] is 6.00 to 7.00; in assay [2] it was above 7.00.

On to `OC(c1ccccc1)c1ccc2cnc(Nc3ccc(N4CCOCC4)cc3)nn12` (centres unmarked) [Example 383, [2-(4-Morpholin-4-yl-phenylamino)-pyrrolo[2,1-f][1,2,4]triazin-7-yl]-phenyl-methanol], for which the figures for the pIC50 in assay [1] and in assay [2] were 5.00 to 6.00 and above 7.00, respectively.

As to `COc1ccc(-c2ccc3cnc(Nc4ccc5c(c4)CC(=O)N5C)nn23)cn1` [Example 384, 5-[7-(6-Methoxy-pyridin-3-yl)-pyrrolo[2,1-f][1,2,4]triazin-2-ylamino]-1-methyl-1,3-dihydro-indol-2-one], the pIC50 in assay [1] is 5.00 to 6.00; in assay [2], above 7.00.

Regarding `CN(c1ncccc1Nc1ccc2cnc(Nc3ccc(N4CCOCC4)cc3)nn12)S(C)(=O)=O` [Example 385, N-Methyl-N-{3-[2-(4-morpholin-4-yl-phenylamino)-pyrrolo[2,1-f][1,2,4]triazin-7-ylamino]-pyridin-2-yl}-methanesulfonamide], the pIC50 is 5.00 to 6.00 in assay [1] and above 7.00 in assay [2].

In the case of `CN(c1ccccc1-c1ccc2cnc(Nc3ccc(N4CCOCC4)cc3F)nn12)S(C)(=O)=O` [Example 386, N-{2-[2-(2-Fluoro-4-morpholin-4-yl-phenylamino)-pyrrolo[2,1-f][1,2,4]triazin-7-yl]-phenyl}-N-methyl-methanesulfonamide], the pIC50 is 6.00 to 7.00 in assay [1] and above 7.00 in assay [2].

Take `CN1C(=O)Cc2cc(Nc3ncc4ccc(Nc5cccnc5N(C)S(C)(=O)=O)n4n3)ccc21` [Example 387, N-Methyl-N-{3-[2-(1-methyl-2-oxo-2,3-dihydro-1H-indol-5-ylamino)-pyrrolo[2,1-f][1,2,4]triazin-7-ylamino]-pyridin-2-yl}-methanesulfonamide]: the pIC50 was 5.00 to 6.00 in assay [1] and above 7.00 in assay [2].

As to `CN(c1ccccc1-c1ccc2cnc(Nc3ccc(F)c(N4CCOCC4)c3)nn12)S(C)(=O)=O` [Example 388, N-{2-[2-(4-Fluoro-3-morpholin-4-yl-phenylamino)-pyrrolo[2,1-f][1,2,4]triazin-7-yl]-phenyl}-N-methyl-methanesulfonamide], the results for the pIC50 in assay [1] and in assay [2] were 6.00 to 7.00 and above 7.00, respectively.

Regarding `COc1ccccc1-c1ccc2cnc(Nc3ccc(F)c(N4CCOCC4)c3)nn12` [Example 389, (4-Fluoro-3-morpholin-4-yl-phenyl)-[7-(2-methoxy-phenyl)-pyrrolo[2,1-f][1,2,4]triazin-2-yl]-amine], the pIC50 in assay [1] was 6.00 to 7.00; in assay [2] it was above 7.00.
